The values that follow come from patent publication EP4671247A1, “SUBSTITUTED PYRAZOLOPYRIMIDINE COMPOUND AND PHARMACEUTICAL USE THEREOF” (Japan Tobacco Inc., priority 2023, dated 2024).

Molecules are shown by their SMILES. Read-outs that look alike come from different tables or passages of the source.

This experiment concerns the target T1, NLRP3 inflammasome (Homo sapiens, UniProt Q96P20).
T1 construct: host or cells: THP1-Null cells (PMA-differentiated, LPS-primed, nigericin-stimulated)
The experiment is described as follows: Evaluation of NLRP3 inflammasome inhibitory activity (inhibition of IL-1β production in LPS/Nigericin-stimulated THP1-Null cells, AlphaLISA). Type of experiment: cell-based. The following applies: for IC50: PMA, 1 µg/mL Lipopolysaccharides 3 hours, Nigericin 7.5 µmol/L 1.5 hours; for inhibition at 2.4 µM: test compound at 2.4 µM. The protocol: The NLRP3 inflammasome inhibitory activity of test compounds were evaluated on the basis of the inhibitory activity of the IL-1β production in THP1-Null cells (Product Number: thp-null, InvivoGen).
The supernatant of the culture was removed, and thereto was added media for assay (25 µL/well) containing 1 µg/mL Lipopolysaccharides (Product Number: L2654, Sigma-Aldrich (registered trademark)). […] The supernatant of the culture was removed. […] A solution containing a test compound (20 µL/well) was added to test compound-setting wells. […] The supernatant of the culture was cryonically stored (set at -20°C) until measurement of IL-1β.
The amount of IL-1β in the culture supernatant was quantitated with AlphaLISA (registered trademark) Human IL-1β Detection Kit (Product Number: AL220C, Perkin Elmer). Fluorescence intensity was measured with a microplate reader EnSpier (Model number: 2300-00J, Perkin Elmer) or EnSight (Model number: HH34000000, Perkin Elmer) according to procedure manuals attached thereto. Inhibition rates of the test compound-setting wells were calculated on the basis of 100% for the blank-setting wells and 0% for the control-setting wells.
A general note: Bead proximity is the source of the signal in Alpha formats.

Setting [1] is: IL-1β production in THP1-Null cells, read-out: IC50.
[2] abbreviates: IC50, IL-1β production in THP1-Null cells.
Where [3] appears, read: IL-1β production in THP1-Null cells.

T1 sequence (Q96P20 whole entry): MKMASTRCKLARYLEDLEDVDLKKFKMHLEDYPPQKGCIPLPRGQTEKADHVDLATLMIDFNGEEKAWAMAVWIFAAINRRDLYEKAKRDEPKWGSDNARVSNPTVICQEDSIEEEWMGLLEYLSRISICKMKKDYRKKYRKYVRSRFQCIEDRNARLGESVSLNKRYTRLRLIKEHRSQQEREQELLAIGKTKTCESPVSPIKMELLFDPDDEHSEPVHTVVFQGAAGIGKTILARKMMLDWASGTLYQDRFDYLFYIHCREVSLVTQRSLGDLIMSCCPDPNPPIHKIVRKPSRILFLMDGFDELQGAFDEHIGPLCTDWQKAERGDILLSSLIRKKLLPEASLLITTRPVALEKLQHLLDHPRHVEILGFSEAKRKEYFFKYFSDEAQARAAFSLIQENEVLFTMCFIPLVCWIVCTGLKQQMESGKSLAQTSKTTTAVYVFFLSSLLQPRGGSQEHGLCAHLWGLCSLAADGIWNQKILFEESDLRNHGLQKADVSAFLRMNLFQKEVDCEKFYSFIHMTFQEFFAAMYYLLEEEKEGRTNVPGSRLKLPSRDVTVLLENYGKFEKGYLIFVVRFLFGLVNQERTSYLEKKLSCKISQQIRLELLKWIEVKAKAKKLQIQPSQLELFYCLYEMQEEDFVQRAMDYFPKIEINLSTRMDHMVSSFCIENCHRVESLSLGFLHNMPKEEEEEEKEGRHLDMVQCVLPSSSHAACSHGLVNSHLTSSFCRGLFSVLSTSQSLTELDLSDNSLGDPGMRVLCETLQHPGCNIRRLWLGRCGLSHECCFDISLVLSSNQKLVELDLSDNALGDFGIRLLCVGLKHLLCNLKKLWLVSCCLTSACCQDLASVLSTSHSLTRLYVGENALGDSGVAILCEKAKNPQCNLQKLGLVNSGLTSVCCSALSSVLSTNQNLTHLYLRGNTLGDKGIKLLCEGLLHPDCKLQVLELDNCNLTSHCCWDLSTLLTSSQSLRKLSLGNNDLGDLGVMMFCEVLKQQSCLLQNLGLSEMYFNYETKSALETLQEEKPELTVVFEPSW

One may read the IC50 as the concentration that inhibits the measured activity by half. Turning to `Cc1cc(OC(F)F)cc(C)c1-n1cc2c(=O)[nH]c(C3CC3(F)F)nc2n1` (racemic) [Example 133], the IC50 under setting [1] worked out at 0.041 µM. Molecule `Cc1cc(Br)cc(C)c1-n1cc2c(=O)[nH]c(C3CC4CCN3CC4)nc2n1` (racemic) [Example 100] had an IC50 under setting [2] of 0.054 µM. As to `Cc1cc(Br)cc(C)c1-n1cc2c(=O)[nH]c(C3CC3C#N)nc2n1` (racemic) [Example 151], the IC50 under setting [1] came out at 0.017 µM. Under setting [3], `Cc1cc(C2CC2)cc(C)c1-n1cc2c(=O)[nH]c(C(O)C(F)F)nc2n1` (single isomer, unassigned) [Example 170] yielded an IC50 of 0.51 µM. On to `Cc1cc(Br)cc(C)c1-n1cc2c(=O)[nH]c(COCC3CCOCC3)nc2n1` [Example 46], for which the IC50 under setting [1] was determined as 0.14 µM. Regarding `Cc1cc(Br)cc(C)c1-n1cc2c(=O)[nH]c(C34CCC(CO3)C4)nc2n1` (racemic) [Example 117], the IC50 under setting [1] was 0.24 µM. Same read-out and setting: as for `Cc1cc(C2CC2)cc(F)c1-n1cc2c(=O)[nH]c(C3CC3)nc2n1` [Example 20], the figure is 0.013 µM. Regarding `Cc1cc(Br)cc(C)c1-n1cc2c(=O)[nH]c(C(O)C(F)(F)F)nc2n1` (racemic) [Example 138], the IC50 under setting [1] was found to be 0.12 µM. Regarding `Cc1cc(C(C)(F)F)cc(C)c1-n1cc2c(=O)[nH]c([C@H](C)O)nc2n1` (single isomer, unassigned) [Example 155], the IC50 under setting [1] turned out to be 0.61 µM. Take `Cc1cc(C(C)(F)F)cc(C)c1-n1cc2c(=O)[nH]c(C(C)O)nc2n1` (racemic) [Example 144, (RS)-2-{4-(1,1-difluoroethyl)-2,6-dimethylphenyl}-6-(1-hydroxyethyl)-2,5-dihydro-4H-pyrazolo[3,4-d]pyrimidin-4-one]: under setting [1], the IC50 worked out at 0.058 µM.

In the case of `Cc1cc(OC(F)F)cc(C)c1-n1cc2c(=O)[nH]c(C3COCC3F)nc2n1` (single isomer, unassigned) [Example 182], under setting [3], inhibition was half-maximal at 0.008 µM (IC50).

`Cc1cc(C(C)(F)F)cc(C)c1-n1cc2c(=O)[nH]c(C3CC3)nc2n1` [Example 80]: the IC50 under setting [1] turned out to be 0.029 µM. Still for that read-out and setting: as for `Cc1cc(C2CC2)cc(C)c1-n1cc2c(=O)[nH]c(C34COC(C)(C3)C4)nc2n1` [Example 52], the figure is 0.04 µM. The same measure, in the same setting: as for `Cc1cc(C2CC2)cc(C)c1-n1cc2c(=O)[nH]c(C34CCOCC3C4(F)F)nc2n1` (racemic) [Example 115], the figure is 0.43 µM; as for `Cc1cc(Br)cc(C)c1-n1cc2c(=O)[nH]c(C3CCOCCO3)nc2n1` (racemic) [Example 160], 0.037 µM. `Cc1cc(C2CC2)cc(C)c1-n1cc2c(=O)[nH]c(C(C)O)nc2n1` (single isomer, unassigned) [Example 156]: half-maximal inhibition under setting [3] (IC50) required 0.013 µM. Still for that read-out and setting: as for `Cc1cc(C2CC2)cc(C)c1-n1cc2c(=O)[nH]c(C(O)C(F)F)nc2n1` (racemic) [Example 158], the figure is 0.026 µM.

In the case of `Cc1cc(C2CC2)cc(C)c1-n1cc2c(=O)[nH]c(C3CC3(F)F)nc2n1` (racemic) [Example 114], the IC50 under setting [1] came to 0.017 µM. For `Cc1cc(Br)cc(C)c1-n1cc2c(=O)[nH]c(COCCC(C)(C)O)nc2n1` [Example 74], the IC50 under setting [1] worked out at 0.19 µM. As to `Cc1c(-n2cc3c(=O)[nH]c(C4CC4)nc3n2)c(C(F)(F)F)nn1C(C)C` [Example 61], under setting [1], the IC50 stood at 0.46 µM. Consider `Cc1ccc(-n2cc3c(=O)[nH]c(C4CCCOC4)nc3n2)c(C)c1` (racemic) [Example 34], for which the IC50 under setting [1] was 0.2 µM. For the molecule `COCc1nc2nn(-c3ccc(C)cc3C)cc2c(=O)[nH]1` [Example 5], the IC50 under setting [1] worked out at 0.58 µM. Consider `Cc1cc(Br)cc(C)c1-n1cc2c(=O)[nH]c(CN3CCCC3=O)nc2n1` [Example 66], for which the IC50 under setting [1] turned out to be 0.43 µM. Same read-out and setting: as for `COCC1C(c2nc3nn(-c4c(C)cc(C5CC5)cc4C)cc3c(=O)[nH]2)C1(F)F` (racemic) [Example 120], the figure is 0.04 µM; as for `Cc1cc(Br)cc(C)c1-n1cc2c(=O)[nH]c(C3(F)CCC3)nc2n1` [Example 68], 0.076 µM.

Under setting [3], `Cc1cc(C2CC2)cc(C)c1-n1cc2c(=O)[nH]c(C3(F)CCOC3)nc2n1` (single isomer, unassigned) [Example 78] returned an IC50 of 0.033 µM.

As for `COCCc1nc2nn(-c3c(C)cc(C4CC4)cc3C)cc2c(=O)[nH]1` [Example 99], the IC50 under setting [1] amounted to 0.043 µM. On the same count and under the same terms, as for `Cc1cc(Br)cc(C)c1-n1cc2c(=O)[nH]c(C3(C#N)CC3)nc2n1` [Example 30], the figure is 0.28 µM; as for `COCc1cc(OC(F)F)cc(C)c1-n1cc2c(=O)[nH]c(C3CC3)nc2n1` [Example 76], 0.082 µM.

Regarding `Cc1cc(C2CC2)cc(C)c1-n1cc2c(=O)[nH]c(C3CCOCC3)nc2n1` [Example 42], under setting [1], the IC50 came out at 0.004 µM.

For the molecule `Cc1cc(C(C)(F)F)cc(C)c1-n1cc2c(=O)[nH]c(C3(F)COC3)nc2n1` [Example 116], the IC50 under setting [1] is 0.28 µM. The same measure, in the same setting: as for `COc1cc(C)c(-n2cc3c(=O)[nH]c(C4CC4)nc3n2)c(C)c1` [Example 53], the figure is 0.14 µM. As usually defined, the inhibition is the change of the read-out against control, counted positive when it falls. With `Cc1ccc(-n2cc3c(=O)n(CC(=O)O)c(C)nc3n2)c(C)c1` [Example 15], under setting [3], the inhibition at 2.4 µM is -3%. Consider `Cc1c(-n2cc3c(=O)[nH]c(C4CCCC4)nc3n2)c(C(F)(F)F)nn1C(C)C` [Example 65], for which the IC50 under setting [1] worked out at 0.3 µM.

Take `Cc1cc(Br)cc(C)c1-n1cc2c(=O)[nH]c(COC(F)F)nc2n1` [Example 132]: the IC50 under setting [1] came to 0.024 µM. On the same count and under the same terms, as for `Cc1cc(OC(F)F)cc(C)c1-n1cc2c(=O)[nH]c(CC3CC3)nc2n1` [Example 164], the figure is 0.067 µM; as for `Cc1cc(Br)cc(C)c1-n1cc2c(=O)[nH]c(CC3CC3)nc2n1` [Example 161], 0.01 µM. Turning to `Cc1cc(C(C)(F)F)cc(C)c1-n1cc2c(=O)[nH]c(CCO)nc2n1` [Example 208], the IC50 under setting [1] was 0.066 µM. Consider `Cc1cc(C(C)(F)F)cc(C)c1-n1cc2c(=O)[nH]c(C3=CCOCC3)nc2n1` [Example 153], for which the IC50 under setting [1] came out at 0.017 µM. Under setting [2], `Cc1cc(C(C)(C)F)cc(C)c1-n1cc2c(=O)[nH]c(C3CC3)nc2n1` [Example 85] yielded an IC50 of 0.029 µM.

Take `Cc1cc(C2CC2)cc(C)c1-n1cc2c(=O)[nH]c(C(C)O)nc2n1` (single isomer, unassigned) [Example 157]: the IC50 under setting [3] was 0.34 µM. On to `CC(=O)c1c2c(=O)[nH]c(C3COC3)nc2nn1-c1c(C)cc(Br)cc1C` [Example 72], for which the IC50 under setting [1] turned out to be 0.057 µM. As for `Cc1ccc(-n2cc3c(=O)n(CC(=O)N(C)C)c(C)nc3n2)c(C)c1` [Example 16], the inhibition at 2.4 µM under setting [3] is -14%. Regarding `Cc1ccc(-n2cc3c(=O)[nH]c(C(F)F)nc3n2)c(C)c1` [Example 10], under setting [1], the IC50 is 13 µM.

As to `Cc1cc(OC(F)F)cc(C)c1-n1cc2c(=O)[nH]c(C3CCOC3)nc2n1` (racemic) [Example 63], the concentration for half-maximal inhibition (IC50) under setting [1] turned out to be 0.045 µM. `Cc1cc(C2CC2)cc(C)c1-n1cc2c(=O)[nH]c(C3CCOC3)nc2n1` (single isomer, unassigned) [Example 51]: half-maximal inhibition under setting [3] (IC50) was put at 0.024 µM. With `Cc1cc(C2CC2)cc(C)c1-n1cc2c(=O)[nH]c(C3CCO3)nc2n1` (racemic) [Example 36], the IC50 under setting [1] is 0.15 µM.

For the molecule `Cc1cc(OC(F)F)cc(C)c1-n1cc2c(=O)[nH]c(C3CCOCCO3)nc2n1` (single isomer, unassigned) [Example 193], the IC50 under setting [3] was found to be 0.027 µM. On to `Cc1cc(C2CC2)cc(C)c1-n1cc2c(=O)[nH]c(C3COC3)nc2n1` [Example 39], for which, under setting [1], the IC50 was 0.016 µM.

`Cc1ccc(-n2cc3c(=O)[nH]c(C4CC4)nc3n2)c(C)c1` [Example 3]: the IC50 under setting [1] came out at 0.24 µM. Regarding `Cc1cc(C2CC2)cc(C)c1-n1cc2c(=O)[nH]c(C3=CCOCC3)nc2n1` [Example 131], the IC50 under setting [1] came to 0.005 µM. Same read-out and setting: as for `Cc1ccc(-n2cc3c(=O)[nH]c(CCCS(C)(=O)=O)nc3n2)c(C)c1` [Example 37], the figure is 1.1 µM. Same read-out and setting: as for `COc1cc(C)c(-n2cc3c(=O)[nH]c(C45CC(CO)(CO4)C5)nc3n2)c(C)c1` [Example 94], the figure is 0.22 µM. For `Cc1cc(Br)cc(C)c1-n1cc2c(=O)[nH]c(C3CC3F)nc2n1` (centres unmarked) [Example 92], the IC50 under setting [3] worked out at 0.007 µM.

Take `Cc1cc(C(C)(F)F)cc(C)c1-n1cc2c(=O)[nH]c([C@H]3C[C@@H]3F)nc2n1` (single isomer, unassigned) [Example 147]: the IC50 under setting [1] came out at 0.024 µM. For `Cc1nc2nn(-c3c(C)cc(Br)cc3C)cc2c(=O)[nH]1` [Example 18], the 50% inhibitory concentration (IC50) under setting [2] was found to be 0.22 µM. In turn, `Cc1cc(C(C)(F)F)cc(C)c1-n1cc2c(=O)[nH]c(C3CCOCCO3)nc2n1` (single isomer, unassigned) [Example 187] yielded an IC50 under setting [3] of 0.067 µM. As for `Cc1ccccc1-n1cc2c(=O)[nH]c(C3CCCC3)nc2n1` [Example 1], under setting [1], the IC50 was 2.3 µM. For the molecule `Cc1ccc(-n2cc3c(=O)[nH]c(C4CCO4)nc3n2)c(C)c1` (racemic) [Example 35], under setting [1], the IC50 is 2.1 µM. For `Cc1cc(Br)cc(C)c1-n1cc2c(=O)[nH]c(C3CC(F)(F)CO3)nc2n1` (racemic) [Example 189], the IC50 under setting [1] was determined as 0.071 µM. Still for that read-out and setting: as for `Cc1cc(C2CC2)cc(C)c1-n1cc2c(=O)[nH]c(C(=O)N(C)C)nc2n1` [Example 195], the figure is 0.18 µM; as for `Cc1cc(Br)cc(C)c1-n1cc2c(=O)[nH]c(CC3COCCO3)nc2n1` (racemic) [Example 113], 0.14 µM.
